Data set [1] is described as follows: Serum levels of phorate, its metabolites and PAM in the poisoned patient (LC-MS). It is filed as in vivo, human. Particulars: for concentration at 1 day / concentration at 4 h / concentration at 3 day / concentration at 5 day / concentration at 7 day / concentration at 10 day / concentration at 12 day / concentration at 14 day / concentration at 16 day / concentration at 18 day: human, in vivo; for change of serum level while HP was stopped: seventh-10th day, family rejected HP. How it is done:
LC-MS was used to detect atropine,PAM,phorate and its metabolites. Ultra-high-pressure liquid chromatography-tandem mass spectrometry on a Sciex Triple TOFTM 5600+ mass spectrometer was used for toxic metabolites terminology screening. Ultra-high-pressure liquid chromatography-tandem mass spectrometry on a Sciextriplequad5500 mass spectrometer was used to detect target analytes quantitatively. Liquid chromatographic separations were performed with a Kinetex C18 column (2.1*50 mm,2.6 μm) from Phenomenex (Torrance, California, United States).Data were processed using the Xcalibur software (version2.0.7) from ThermoFisher.

In data set [2] the target is cholinesterase. Conditions: ref Kovarova et al., 2013, cited from earlier work; for IC50: read-out: cholinesterase inhibition IC50; for times more toxic than phorate: relative to phorate, from IC50.
In data set [3] the target is T1, cholinesterase (Homo sapiens, UniProt P06276).
T1 construct: from tissue; host or cells: serum of the patient
T1 sequence (P06276 29-602): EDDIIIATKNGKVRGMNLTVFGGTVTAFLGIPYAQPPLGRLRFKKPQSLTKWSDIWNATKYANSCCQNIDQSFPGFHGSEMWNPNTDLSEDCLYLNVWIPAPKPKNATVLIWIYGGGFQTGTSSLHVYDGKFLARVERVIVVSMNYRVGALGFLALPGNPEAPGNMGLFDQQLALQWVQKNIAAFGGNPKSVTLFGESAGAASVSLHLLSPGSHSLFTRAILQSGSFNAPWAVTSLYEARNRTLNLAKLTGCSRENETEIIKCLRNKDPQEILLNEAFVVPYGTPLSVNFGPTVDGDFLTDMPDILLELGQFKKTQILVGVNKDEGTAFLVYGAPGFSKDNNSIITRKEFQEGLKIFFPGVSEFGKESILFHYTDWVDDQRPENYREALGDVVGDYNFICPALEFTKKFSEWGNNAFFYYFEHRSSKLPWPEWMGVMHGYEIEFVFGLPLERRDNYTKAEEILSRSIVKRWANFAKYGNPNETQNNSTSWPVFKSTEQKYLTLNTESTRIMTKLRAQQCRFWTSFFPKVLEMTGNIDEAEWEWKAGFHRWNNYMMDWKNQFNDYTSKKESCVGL
Nature of the data set: Serum cholinesterase level of the patient during phorate poisoning. It is filed as in vivo. Conditions: for serum cholinesterase activity: patient. How it is done: Cholinesterase levels were measured using petrochemistry products, Ortho Medical Equipment Trade (China) Co., Ltd. slides, and the Medical Device of the PRC Registration Certificate NO.: 20212402803. Dry tablets (rate method) and compound calibrator for cholinesterase were determined by cholinesterase on a vitros5600 automatic biochemical immunoanalyzer (VITROS Chemistry Products, Calibrator kit 6). The reportable range of measurement was 200–12,500 U/L.

Another data set relates to AChE. Details: method as in Moyer et al., 2018b. Particulars: within 48 h; ref Moyer et al., 2018b; cited from earlier work.
The conditions of data set [4]: 24 h after ingestion; cited from earlier work.
For data set [5] the following is noted: liposolubility; cited from earlier work.
Where [6] appears, read: patient, day 1, before HP, about 4 h after ingestion of 60% phorate emulsion.

On to `CCOP(=S)(OCC)SC[S+]([O-])CC` (stereo not shown) [phorate sulfoxide], for which the concentration at 1 day in data set [1] (patient, day 1, after HP) worked out at 1.02 µg/mL. Besides, the concentration at 4 h in data set [1] (setting [6]) was found to be 1.44 µg/mL. The concentration at 3 day in data set [1] (patient, day 3) worked out at 0.0212 µg/mL. Further, in data set [1] (patient, day 5), the concentration at 5 day was 0.0109 µg/mL. The concentration at 7 day in data set [1] (patient, day 7 (HP suspended)) was found to be 0.0352 µg/mL. The concentration at 10 day in data set [1] (patient, day 10 (HP suspended)) was found to be 0.0802 µg/mL. The concentration at 12 day in data set [1] (patient, day 12) was 0.0181 µg/mL. The concentration at 14 day in data set [1] (patient, day 14) amounted to 0.0176 µg/mL. Further, in data set [1] (patient, day 16), the concentration at 16 day is 0.00167 µg/mL. Also, the concentration at 18 day in data set [1] (patient, day 18) was found to be 0 µg/mL. In addition, the “change of serum level while HP was stopped” value (shortened to “change”) in data set [1] was “significant rise”. Besides, the IC50 (commonly the concentration at which inhibition is half-maximal) on cholinesterase [2] was 1500 µM.

On to `C[n+]1ccccc1/C=N/O` [PAM, pralidoxime chloride, reference compound], for which the “concentration of PAM” value in data set [1] (sixth day, after 0.5 g per hour for 5 days) is “significantly increased”.

In the case of `CCOP(=O)(OCC)SCS(=O)(=O)CC` [phoratoxon sulfone], the concentration at 1 day in data set [1] (patient, day 1, after HP) worked out at 2.11 µg/mL. Moreover, the concentration at 4 h in data set [1] (setting [6]) was 3.24 µg/mL. In addition, in data set [1] (patient, day 3), the concentration at 3 day is 0.221 µg/mL. In addition, in data set [1] (patient, day 5), the concentration at 5 day is 0.114 µg/mL. Besides, in data set [1] (patient, day 7 (HP suspended)), the concentration at 7 day was 0.0652 µg/mL. Further, in data set [1] (patient, day 10 (HP suspended)), the concentration at 10 day worked out at 0.0449 µg/mL. Moreover, the concentration at 12 day in data set [1] (patient, day 12) was found to be 0.0333 µg/mL. The concentration at 14 day in data set [1] (patient, day 14) was 0.0294 µg/mL. Further, the concentration at 16 day in data set [1] (patient, day 16) was 0.0209 µg/mL. In addition, the concentration at 18 day in data set [1] (patient, day 18) came out at 0.0203 µg/mL. Further, the “change” value in data set [1] was “gradually fell”. Further, on cholinesterase [2], the IC50 was 0.5 µM and the “times more toxic than phorate” value is reported as 1000 times.

As to `CCOP(=O)(OCC)SCSCC` [phoratoxon], the serum concentration in data set [1] (patient, day 1, after HP) is 0.161 µg/mL; in data set [1] (setting [6]), 0.195 µg/mL; in data set [1] (patient, day 3), 0.0277 µg/mL; in data set [1] (patient, day 5), 0.00333 µg/mL; in data set [1] (patient, day 7 (HP suspended)), 0.0021 µg/mL; in data set [1] (patient, day 10 (HP suspended)) it was 0.00101 µg/mL. For the same compound, the serum concentration in data set [1] (patient, day 12) was found to be 0.000433 µg/mL; in data set [1] (patient, day 14), 0.000415 µg/mL; in data set [1] (patient, day 16), 0 µg/mL; in data set [1] (patient, day 18) it was 0 µg/mL. Besides, in data set [1], the “change” value was “gradually fell”. The concentration for half-maximal inhibition (IC50) on cholinesterase [2] is 3 µM. Also, the “times more toxic than phorate” value in the data set with cholinesterase [2] is 1000 times.

Consider `CCOP(=S)(OCC)SCS(=O)(=O)CC` [phorate sulfone], for which the concentration at 1 day in data set [1] (patient, day 1, after HP) is 1.31 µg/mL. Also, the concentration at 4 h in data set [1] (setting [6]) is 1.92 µg/mL. In addition, the concentration at 3 day in data set [1] (patient, day 3) came out at 0.191 µg/mL. Further, the concentration at 5 day in data set [1] (patient, day 5) is 0.0689 µg/mL. Moreover, in data set [1] (patient, day 7 (HP suspended)), the concentration at 7 day stood at 0.0307 µg/mL. Besides, in data set [1] (patient, day 10 (HP suspended)), the concentration at 10 day was determined as 0.031 µg/mL. Besides, the concentration at 12 day in data set [1] (patient, day 12) is 0.0148 µg/mL. Further, the concentration at 14 day in data set [1] (patient, day 14) was 0.0182 µg/mL. The concentration at 16 day in data set [1] (patient, day 16) worked out at 0.0108 µg/mL. Besides, the concentration at 18 day in data set [1] (patient, day 18) is 0.00271 µg/mL. Further, the “change” value in data set [1] is reported as “slight rise”. Besides, on cholinesterase [2], the IC50 is 40 µM and the “times more toxic than phorate” value was “about 80 times”.

Consider `CCOP(=O)(OCC)SC[S+]([O-])CC` (stereo not shown) [phoratoxon sulfoxide], for which the serum concentration amounted to 2.18 µg/mL in data set [1] (patient, day 1, after HP); 4.17 µg/mL in data set [1] (setting [6]); 0.696 µg/mL in data set [1] (patient, day 3); 0.304 µg/mL in data set [1] (patient, day 5); 0.219 µg/mL in data set [1] (patient, day 7 (HP suspended)); 0.177 µg/mL in data set [1] (patient, day 10 (HP suspended)). In addition, the serum concentration in data set [1] (patient, day 12) was determined as 0.0962 µg/mL; in data set [1] (patient, day 14) it was 0.0723 µg/mL; in data set [1] (patient, day 16) it was 0.0145 µg/mL; in data set [1] (patient, day 18) it was 0.000743 µg/mL. Further, the “change” value in data set [1] was “gradually fell”. In addition, the 50% inhibitory concentration (IC50) on cholinesterase [2] is 0.9 µM. Further, in the data set with cholinesterase [2], the “times more toxic than phorate” value was 1000 times.

For `CCOP(=S)(OCC)SCSCC` [phorate, phosphorodithioic acid O, O-diethyl S-[(ethylthio)methyl] ester], the phorate in blood entry in data set [1] (after the first HP treatment and subsequent daily HP treatments) is on record as “not detected”. The “unmetabolized phorate in first blood analysis” value in data set [1] (before HP, about 4 h after ingestion) is “did not detect”. For the same compound, in data set [1] (patient, 34th day), the “levels in the serum” value is less than 0.01 µg/mL. The cholinesterase levels on cholinesterase [3] (23rd day) is 1,634 U/L; on cholinesterase [3] (27th day), 3592 U/L; on cholinesterase [3] (34th day), 4,821 U/L. Besides, the “serum cholinesterase, share of the normal value” on cholinesterase [3] (after 30 days) was “about 50%”. The serum cholinesterase activity on cholinesterase [3] (day 1) is reported as 268 u/L; at cholinesterase [3] (day 3) it was 200 u/L; at cholinesterase [3] (day 7), 200 u/L; on cholinesterase [3] (day 14), 233 u/L; at cholinesterase [3] (day 28) it was 3621 u/L. This compound showed a serum cholinesterase on cholinesterase [3] (upon transfer into ICU, after first blood perfusion) of 268 U/L. Besides, the half-inhibitory concentration (IC50) on cholinesterase [2] was 3100 µM. In addition, in the data set with AChE, the “aging of AChE inhibited by phorate” value is listed as “no significant aging”. Also, the “unmetabolized phorate in blood” value in data set [4] is reported as “no longer detectable”. Besides, the logP (in general, the decadic logarithm of the partition coefficient of the neutral form, usually between octanol and water) in data set [5] is reported as 3.71.

These data come from article PMC12098374, “Case report: Treatment of severe phorate poisoning” (Frontiers in Toxicology, 2025).
